Test results from patent US20160175318A1, “COMPOSITIONS COMPRISING ANTIBACTERIAL AGENT AND TAZOBACTAM” (WOCKHARDT LIMITED, priority 2013, published 2016).
Where two headings read alike, the source gives them in different places.

Columns and labels:
Type in all cases: cell-based
E. coli M50 [1] = experiment: Quantitative drug diffusion assay (disc, zone of inhibition, CLSI); set-up: key to Interpretation of zone as per CLSI recommendations: R: Resistant; I: Intermediate; S: Sensitive (Interpretation as per CLSI recommendations, 2010)
Excerpt: (§1) Activity of cefepime in combination with tazobactam and various penicillins in combination with respective ESBL inhibitors was also investigated against highly resistant ESBL strains in quantitative drug diffusion assay performed as per CLSI recommendations (Clinical and Laboratory Standards Institute (CLSI), performance Standards for Antimicrobial Susceptibility Testing, 20th Informational Supplement, M 100-S20, Volume 30, No. 1, 2010).
(§2) In a typical study, overnight grown bacterial cultures after appropriate dilution were seed inoculated in the molten, cooled agar media and plates poured. Antibiotics containing 6 mm diameter discs were place on the top of the agar surface. Zone of inhibition based observation was performed after 16-18 h of incubation at 35±2° C. in ambient air. The overall procedure was performed as per CLSI recommendations (Table 5 and 6). These assays are routinely used in determining possibility of treating a particular infection using antibiotic and/or their combinations. For example, in case of treating an infection caused by E. coli (M138) using Augmentin® [commercially available combination: Amoxicillin (500 mg)+Clavulanic acid (125 mg)], the zone inhibition values need to be in the sensitive (S) range.

E. coli B-89 [2] = experiment: as above; set-up: key to Interpretation of zone as per CLSI recommendations: R: Resistant; I: Intermediate; S: Sensitive (Interpretation as per CLSI recommendations, 2010)
Excerpt: as §1, §2

E. coli S-112 = experiment: as above; set-up: key to Interpretation of zone as per CLSI recommendations: R: Resistant; I: Intermediate; S: Sensitive (Interpretation as per CLSI recommendations, 2010)
Excerpt: as §1, §2

E. coli M-138 = experiment: as above; set-up: key to Interpretation of zone as per CLSI recommendations: R: Resistant; I: Intermediate; S: Sensitive (Interpretation as per CLSI recommendations, 2010)
Excerpt: as §1, §2

E. coli 7MP [3] = experiment: as above; set-up: key to Interpretation of zone as per CLSI recommendations: R: Resistant; I: Intermediate; S: Sensitive (Interpretation as per CLSI recommendations, 2010)
Excerpt: as §1, §2

E. coli B-123 = experiment: as above; set-up: key to Interpretation of zone as per CLSI recommendations: R: Resistant; I: Intermediate; S: Sensitive (Interpretation as per CLSI recommendations, 2010)
Excerpt: as §1, §2

E. coli M50 [4] = experiment: MIC by agar dilution (CLSI) against highly resistant ESBL strain
Protocol: (§3) The results on activity of cefepime and other cephalosporin antibacterial agents in combination with tazobactam against highly resistant ESBL strains are given Table 1. In a typical study, overnight grown bacterial cultures were diluted appropriately and inoculated on the agar media containing doubling dilutions of the antibiotic. Observation for growth or no growth was performed after 16-20 h of incubation at 35±2° C. in ambient air. The overall procedure was performed as per Clinical and Laboratory Standards Institute (CLSI) recommendations. This experimental was followed for Examples 2-4 and 6 below (Table 2-4 and 7).

E. coli B-89 [5] = experiment: as above
Protocol: as §3

K. pneumoniae M150 = experiment: as above; conditions: Klebsiella pneumoniae
Protocol: as §3

E. coli 7MP [6] = experiment: as above
Protocol: as §3

E. cloacae M-20 = experiment: as above
Protocol: as §3

[7] = ESBL inhibitor 0 mcg (antibiotic alone)
[8] = Table 5, with Clavulanic acid 10 mcg
[9] = Table 6, with Clavulanic acid 10 mcg

CC1(C)S[C@@H]2[C@H](NC(=O)[C@H](N)c3ccc(O)cc3)C(=O)N2[C@H]1C(=O)O [Amoxicillin]
Zone of Inhibition (E. coli M50 [1]; [7]): Nil
Interpretation of zone as per CLSI recommendations (E. coli M50 [1]; Table 5, ESBL inhibitor 0 mcg): (R)
Interpretation of zone as per CLSI recommendations (E. coli M50 [1]; [8]): (R)
Interpretation of zone as per CLSI recommendations (E. coli M50 [1]; Table 6, ESBL inhibitor 0 mcg): (R)
Interpretation of zone as per CLSI recommendations (E. coli M50 [1]; [9]): (R)
Zone of Inhibition (E. coli M50 [1]; with Clavulanic acid 10 mcg): Nil
Zone of Inhibition (E. coli B-89 [2]; [7]): Nil
Interpretation of zone as per CLSI recommendations (E. coli B-89 [2]; Table 5, ESBL inhibitor 0 mcg): (R)
Interpretation of zone as per CLSI recommendations (E. coli B-89 [2]; [8]): (R)
Interpretation of zone as per CLSI recommendations (E. coli B-89 [2]; Table 6, ESBL inhibitor 0 mcg): (R)
Interpretation of zone as per CLSI recommendations (E. coli B-89 [2]; [9]): (R)
Zone of Inhibition (E. coli B-89 [2]; with Clavulanic acid 10 mcg): Nil
Zone of Inhibition (E. coli S-112; [7]): Nil
Interpretation of zone as per CLSI recommendations (E. coli S-112; Table 5, ESBL inhibitor 0 mcg): (R)
Interpretation of zone as per CLSI recommendations (E. coli S-112; [8]): (R)
Interpretation of zone as per CLSI recommendations (E. coli S-112; Table 6, ESBL inhibitor 0 mcg): (R)
Interpretation of zone as per CLSI recommendations (E. coli S-112; [9]): (R)
Zone of Inhibition (E. coli S-112; with Clavulanic acid 10 mcg): Nil
Zone of Inhibition (E. coli M-138; [7]): Nil
Interpretation of zone as per CLSI recommendations (E. coli M-138; Table 5, ESBL inhibitor 0 mcg): (R)
Interpretation of zone as per CLSI recommendations (E. coli M-138; [8]): (R)
Interpretation of zone as per CLSI recommendations (E. coli M-138; Table 6, ESBL inhibitor 0 mcg): (R)
Interpretation of zone as per CLSI recommendations (E. coli M-138; [9]): (R)
Zone of Inhibition (E. coli M-138; with Clavulanic acid 10 mcg): Nil
Zone of Inhibition (E. coli 7MP [3]; [7]): Nil
Interpretation of zone as per CLSI recommendations (E. coli 7MP [3]; Table 5, ESBL inhibitor 0 mcg): (R)
Interpretation of zone as per CLSI recommendations (E. coli 7MP [3]; [8]): (R)
Interpretation of zone as per CLSI recommendations (E. coli 7MP [3]; Table 6, ESBL inhibitor 0 mcg): (R)
Interpretation of zone as per CLSI recommendations (E. coli 7MP [3]; [9]): (R)
Zone of Inhibition (E. coli 7MP [3]; with Clavulanic acid 10 mcg): Nil
Zone of Inhibition (E. coli B-123; [7]): Nil
Interpretation of zone as per CLSI recommendations (E. coli B-123; Table 5, ESBL inhibitor 0 mcg): (R)
Interpretation of zone as per CLSI recommendations (E. coli B-123; [8]): (R)
Interpretation of zone as per CLSI recommendations (E. coli B-123; Table 6, ESBL inhibitor 0 mcg): (R)
Interpretation of zone as per CLSI recommendations (E. coli B-123; [9]): (R)
Zone of Inhibition (E. coli B-123; with Clavulanic acid 10 mcg): Nil
MIC (E. coli M50 [4]; Escherichia coli, M50, 20 h, Tazobactam 0 mcg (antibiotic alone)): > 128 µg/mL
MIC (E. coli M50 [4]; with Tazobactam 4 mcg): >64 µg/mL
MIC (E. coli M50 [4]; with Tazobactam 8 mcg): >64 µg/mL
MIC (E. coli B-89 [5]; E. coli B-89, with Tazobactam 4 mcg): >64 µg/mL
MIC (E. coli B-89 [5]; E. coli B-89, with Tazobactam 8 mcg): >64 µg/mL
MIC (E. coli B-89 [5]; Escherichia coli, B89, 20 h): > 128 µg/mL
MIC (K. pneumoniae M150; M150): > 128 µg/mL
MIC (K. pneumoniae M150; M150, K. pneumoniae M150, with Tazobactam 4 mcg, read-out: MIC): > 64 µg/mL
MIC (K. pneumoniae M150; M150, K. pneumoniae M150, with Tazobactam 8 mcg, read-out: MIC): > 64 µg/mL
MIC (E. coli 7MP [6]; E. coli 7MP, with Tazobactam 4 mcg): >64 µg/mL
MIC (E. coli 7MP [6]; E. coli 7MP, with Tazobactam 8 mcg): >64 µg/mL
MIC (E. coli 7MP [6]; Escherichia coli, 7MP, 20 h): > 128 µg/mL
MIC (E. cloacae M-20; E. cloacae M-20, with Tazobactam 4 mcg): >64 µg/mL
MIC (E. cloacae M-20; E. cloacae M-20, with Tazobactam 8 mcg): >64 µg/mL
MIC (E. cloacae M-20; Enterobacter cloacae, M20, 20 h): > 128 µg/mL
